In patent US10953015B2, “Use of adenosine receptor signaling to regulate P-gp function” (CORNELL UNIVERSITY, priority 2016, dated 2021):

Legend:
[1] = tested on: MMP9; experiment: MMP9 in mouse brain endothelial cells after intravenous injection (IFA); format: in vivo; conditions: 0.05 mg/kg i.v.; 5 minutes
Protocol: Vehicle control (DMSO) or 0.05 mg/kg of Lexiscan® was injected intravenously into mice. Five minutes later, mice were sacrificed and frozen sections of the brain were stained with anti-MMP9 (red) or anti-GLUT-1 (green) antibodies. Nucleus was counterstained with DAPI (blue). The scale bar indicates 50 μm.

[2] = tested on: P-gp; experiment: P-gp expression in Caco-2 human tumor cell line (IFA MFI, western blot); format: cell-based; conditions: 1 μM for 30 minutes (IFA), 1, 0.5, 0.1 μM (western blot)
Protocol: FIG. 19A are fluorescence microscopy images of Caco-2 cells (originally isolated from a human primary colonic tumor) grown on coverslips and treated with Lexiscan® (1 μM) or A1193 (1 μM), or DMSO (vehicle) control for 30 minutes. Next, cells were fixed, permeabilized, and stained with an antibody to P-gp. After washing, cells were mounted with DAPI for nuclear staining. FIG. 19B is a graph of the MFI of P-gp. FIG. 19C is a graph of densitometric analysis of a western blot of Caco-2 cells treated with Lexiscan® in varying concentrations (1, 0.5, and 0.1 μM). Densitometric analysis was performed to quantify the amount of P-gp in western blot. Statistics: two tailed student's t test for FIG. 19B, *<0.5.
Applicants also evaluated whether A2A AR agonists can modulate P-gp expression in a human tumor cell line, Caco-2 cells. Briefly, Caco-2 cells (originally isolated from a human tumor) were grown on coverslips and treated with Lexiscan®, A1193, or vehicle control for 30 minutes. Cells were then fixed, permeabilized, and stained with an antibody to P-gp. After washing, cells were mounted with DAPI for nuclear staining (FIG. 19A). The mean fluorescence intensity (MFI) of P-gp was quantified and graphed in FIG. 19B.

`CNC(=O)c1cnn(-c2nc(N)c3ncn([C@@H]4O[C@H](CO)[C@@H](O)[C@H]4O)c3n2)c1` [Lexiscan®, 1-[6-amino-9-[(2R,3R,4S,5R)-3,4-dihydroxy-5-(hydroxymethyl)oxolan-2-yl]purin-2-yl]-N-methylpyrazole-4-carboxamide] was tested, and the “MMP9 in mouse brain endothelial cells” value [1] was “rapid increase of MMP9” and the P-gp expression [2] was “down-regulates P-gp expression in Caco-2”.
